In ChEMBL document CHEMBL1909046, “DrugMatrix in vitro pharmacology data”:

Target: Cytochrome P450 2E1 (Homo sapiens, UniProt P05181); further: in other assays of this panel Not Active means under 50% inhibition at 10 µM
Test: not given
Details: bti-tn-5b1-4

Cytochrome P450 2E1, sequence (P05181 whole entry): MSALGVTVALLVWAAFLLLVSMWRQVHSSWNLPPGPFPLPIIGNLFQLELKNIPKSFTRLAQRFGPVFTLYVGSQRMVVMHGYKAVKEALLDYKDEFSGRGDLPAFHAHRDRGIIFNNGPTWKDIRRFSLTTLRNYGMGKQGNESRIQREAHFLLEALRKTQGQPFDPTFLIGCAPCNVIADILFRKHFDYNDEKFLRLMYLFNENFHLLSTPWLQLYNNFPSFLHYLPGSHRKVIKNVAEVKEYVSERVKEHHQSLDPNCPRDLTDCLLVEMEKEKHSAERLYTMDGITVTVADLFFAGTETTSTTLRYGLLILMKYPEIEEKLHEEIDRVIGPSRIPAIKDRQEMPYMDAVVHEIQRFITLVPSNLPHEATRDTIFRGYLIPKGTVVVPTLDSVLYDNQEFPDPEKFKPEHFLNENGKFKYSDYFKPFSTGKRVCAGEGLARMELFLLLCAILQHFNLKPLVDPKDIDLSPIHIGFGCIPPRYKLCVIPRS

| Structure (SMILES) | IC50 | Ki |
| --- | --- | --- |
| C[C@@H](O)[C@H]1C(=O)N2C(C(=O)O)=C(S[C@@H]3CN[C@H](C(=O)N(C)C)C3)[C@H](C)[C@H]12 [MEROPENEM] | Not Active | Not Active |
| CC[C@@H](CO)NC(=O)[C@@H]1C=C2c3cccc4c3c(cn4C)C[C@H]2N(C)C1 [METHYSERGIDE] | Not Active | Not Active |
| CCN(CC)CC#CCOC(=O)C(O)(c1ccccc1)C1CCCCC1 (centres undefined) [OXYBUTYNIN] | Not Active | Not Active |
| O=P(O)(O)C(O)(Cc1cccnc1)P(=O)(O)O [RISEDRONIC ACID] | Not Active | Not Active |
| CN(CCOc1ccc(CC2SC(=O)NC2=O)cc1)c1ccccn1 (centres undefined) [ROSIGLITAZONE] | Not Active | Not Active |
| C=C(C)[C@H]1Cc2c(ccc3c2O[C@@H]2COc4cc(OC)c(OC)cc4[C@@H]2C3=O)O1 [ROTENONE] | Not Active | Not Active |
| C#CCN(C)[C@H](C)Cc1ccccc1 [SELEGILINE] | Not Active | Not Active |
| CC(C)(C)NC[C@H](O)COc1nsnc1N1CCOCC1 [TIMOLOL] | Not Active | Not Active |
| O=c1n(CCCN2CCN(c3cccc(Cl)c3)CC2)nc2ccccn12 [TRAZODONE] | Not Active | Not Active |

Target: Beta-3 adrenergic receptor (Homo sapiens, UniProt P13945)
Test: DRUGMATRIX: Adrenergic beta3 radioligand binding (ligand: [125I] Cyanopindolol)
Format: cell membranes, HEK293, Membrane
Details: Not Active = under 50% inhibition at 10 µM; read-out: IC50

Beta-3 adrenergic receptor, sequence (P13945 whole entry): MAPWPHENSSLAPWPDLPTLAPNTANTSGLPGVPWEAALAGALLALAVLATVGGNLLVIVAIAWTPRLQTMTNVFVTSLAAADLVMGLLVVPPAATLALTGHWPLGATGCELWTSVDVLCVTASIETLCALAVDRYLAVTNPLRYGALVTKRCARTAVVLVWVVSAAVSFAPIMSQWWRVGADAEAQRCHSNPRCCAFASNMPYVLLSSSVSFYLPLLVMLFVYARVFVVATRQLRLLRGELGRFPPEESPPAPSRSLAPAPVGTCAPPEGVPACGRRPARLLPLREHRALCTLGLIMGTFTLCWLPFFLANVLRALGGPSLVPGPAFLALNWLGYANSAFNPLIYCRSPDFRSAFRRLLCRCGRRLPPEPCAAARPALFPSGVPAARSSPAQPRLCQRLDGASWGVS

| Structure (SMILES) | IC50 [nM] |
| --- | --- |
| CC(C)(C)NC[C@H](O)COc1nsnc1N1CCOCC1 [TIMOLOL] | 452 |

Same assay, conditions: Not Active = under 50% inhibition at 10 µM; read-out: Ki

| Structure (SMILES) | Ki [nM] |
| --- | --- |
| CC(C)(C)NC[C@H](O)COc1nsnc1N1CCOCC1 [TIMOLOL] | 339 |

Same assay, conditions: hek293; Not Active = under 50% inhibition at 10 µM

| Structure (SMILES) | IC50 |
| --- | --- |
| O=c1[nH]c2ccccc2n1CCCN1CCC(n2c(=O)[nH]c3cc(Cl)ccc32)CC1 [DOMPERIDONE] | Not Active |
| C[C@@H](O)[C@H]1C(=O)N2C(C(=O)O)=C(S[C@@H]3CN[C@H](C(=O)N(C)C)C3)[C@H](C)[C@H]12 [MEROPENEM] | Not Active |
| CC[C@@H](CO)NC(=O)[C@@H]1C=C2c3cccc4c3c(cn4C)C[C@H]2N(C)C1 [METHYSERGIDE] | Not Active |
| CCN(CC)CC#CCOC(=O)C(O)(c1ccccc1)C1CCCCC1 (centres undefined) [OXYBUTYNIN] | Not Active |
| O=P(O)(O)C(O)(Cc1cccnc1)P(=O)(O)O [RISEDRONIC ACID] | Not Active |
| CN(CCOc1ccc(CC2SC(=O)NC2=O)cc1)c1ccccn1 (centres undefined) [ROSIGLITAZONE] | Not Active |
| C=C(C)[C@H]1Cc2c(ccc3c2O[C@@H]2COc4cc(OC)c(OC)cc4[C@@H]2C3=O)O1 [ROTENONE] | Not Active |
| C#CCN(C)[C@H](C)Cc1ccccc1 [SELEGILINE] | Not Active |
| CCS(=O)(=O)CCn1c([N+](=O)[O-])cnc1C [TINIDAZOLE] | Not Active |
| O=c1n(CCCN2CCN(c3cccc(Cl)c3)CC2)nc2ccccn12 [TRAZODONE] | Not Active |
| COc1ccc(CN2CCNCC2)c(OC)c1OC [TRIMETAZIDINE] | Not Active |

Target: Beta-1 adrenergic receptor (Homo sapiens, UniProt P08588)
Test: DRUGMATRIX: Adrenergic beta1 radioligand binding (ligand: [125I] Cyanopindolol)
Format: cell membranes, CHO-K1, Membrane
Details: cho-k1; Not Active = under 50% inhibition at 10 µM

Beta-1 adrenergic receptor, sequence (P08588 whole entry): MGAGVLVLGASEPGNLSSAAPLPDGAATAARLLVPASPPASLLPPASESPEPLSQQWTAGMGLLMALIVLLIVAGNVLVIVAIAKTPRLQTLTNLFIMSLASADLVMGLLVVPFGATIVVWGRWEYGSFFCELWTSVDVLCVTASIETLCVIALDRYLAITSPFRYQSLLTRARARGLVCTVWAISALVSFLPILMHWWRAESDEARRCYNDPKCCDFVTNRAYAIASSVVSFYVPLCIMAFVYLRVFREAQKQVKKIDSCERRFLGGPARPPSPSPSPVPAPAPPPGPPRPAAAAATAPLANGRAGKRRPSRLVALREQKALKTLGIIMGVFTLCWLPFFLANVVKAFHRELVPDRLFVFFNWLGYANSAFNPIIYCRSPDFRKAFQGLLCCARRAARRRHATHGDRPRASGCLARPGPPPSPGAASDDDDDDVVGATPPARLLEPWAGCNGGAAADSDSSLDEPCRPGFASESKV

| Structure (SMILES) | IC50 |
| --- | --- |
| O=c1[nH]c2ccccc2n1CCCN1CCC(n2c(=O)[nH]c3cc(Cl)ccc32)CC1 [DOMPERIDONE] | Not Active |
| C[C@@H](O)[C@H]1C(=O)N2C(C(=O)O)=C(S[C@@H]3CN[C@H](C(=O)N(C)C)C3)[C@H](C)[C@H]12 [MEROPENEM] | Not Active |
| CCN(CC)CC#CCOC(=O)C(O)(c1ccccc1)C1CCCCC1 (centres undefined) [OXYBUTYNIN] | Not Active |
| O=P(O)(O)C(O)(Cc1cccnc1)P(=O)(O)O [RISEDRONIC ACID] | Not Active |
| CN(CCOc1ccc(CC2SC(=O)NC2=O)cc1)c1ccccn1 (centres undefined) [ROSIGLITAZONE] | Not Active |
| C=C(C)[C@H]1Cc2c(ccc3c2O[C@@H]2COc4cc(OC)c(OC)cc4[C@@H]2C3=O)O1 [ROTENONE] | Not Active |
| C#CCN(C)[C@H](C)Cc1ccccc1 [SELEGILINE] | Not Active |
| CCS(=O)(=O)CCn1c([N+](=O)[O-])cnc1C [TINIDAZOLE] | Not Active |
| O=c1n(CCCN2CCN(c3cccc(Cl)c3)CC2)nc2ccccn12 [TRAZODONE] | Not Active |
| COc1ccc(CN2CCNCC2)c(OC)c1OC [TRIMETAZIDINE] | Not Active |

Test system: not listed separately
Test: DRUGMATRIX: GABAA, Flunitrazepam, Central radioligand binding (ligand: [3H] Flunitrazepam)
Format: cell membranes, Rattus norvegicus, Wistar, Brain, Membrane
Details: Not Active = under 50% inhibition at 10 µM

| Structure (SMILES) | IC50 | Ki |
| --- | --- | --- |
| C[C@@H](O)[C@H]1C(=O)N2C(C(=O)O)=C(S[C@@H]3CN[C@H](C(=O)N(C)C)C3)[C@H](C)[C@H]12 [MEROPENEM] | Not Active | Not Active |
| O=P(O)(O)C(O)(Cc1cccnc1)P(=O)(O)O [RISEDRONIC ACID] | Not Active | Not Active |
| CN(CCOc1ccc(CC2SC(=O)NC2=O)cc1)c1ccccn1 (centres undefined) [ROSIGLITAZONE] | Not Active | Not Active |
| C=C(C)[C@H]1Cc2c(ccc3c2O[C@@H]2COc4cc(OC)c(OC)cc4[C@@H]2C3=O)O1 [ROTENONE] | Not Active | Not Active |
| C#CCN(C)[C@H](C)Cc1ccccc1 [SELEGILINE] | Not Active | Not Active |
| CC(C)(C)NC[C@H](O)COc1nsnc1N1CCOCC1 [TIMOLOL] | Not Active | Not Active |
| CCS(=O)(=O)CCn1c([N+](=O)[O-])cnc1C [TINIDAZOLE] | Not Active | Not Active |
| COc1ccc(CN2CCNCC2)c(OC)c1OC [TRIMETAZIDINE] | Not Active | Not Active |

Test system: not listed separately
Test: DRUGMATRIX: Purinergic P2X radioligand binding (ligand: [3H] alpha, beta-Methylene-ATP)
Format: cell membranes, Oryctolagus cuniculus, New Zealand albino, Urinary bladder, Membrane
Details: Not Active = under 50% inhibition at 10 µM

| Structure (SMILES) | IC50 | Ki |
| --- | --- | --- |
| C[C@@H](O)[C@H]1C(=O)N2C(C(=O)O)=C(S[C@@H]3CN[C@H](C(=O)N(C)C)C3)[C@H](C)[C@H]12 [MEROPENEM] | Not Active | Not Active |
| O=P(O)(O)C(O)(Cc1cccnc1)P(=O)(O)O [RISEDRONIC ACID] | Not Active | Not Active |
| CN(CCOc1ccc(CC2SC(=O)NC2=O)cc1)c1ccccn1 (centres undefined) [ROSIGLITAZONE] | Not Active | Not Active |
| C=C(C)[C@H]1Cc2c(ccc3c2O[C@@H]2COc4cc(OC)c(OC)cc4[C@@H]2C3=O)O1 [ROTENONE] | Not Active | Not Active |
| C#CCN(C)[C@H](C)Cc1ccccc1 [SELEGILINE] | Not Active | Not Active |
| CC(C)(C)NC[C@H](O)COc1nsnc1N1CCOCC1 [TIMOLOL] | Not Active | Not Active |
| CCS(=O)(=O)CCn1c([N+](=O)[O-])cnc1C [TINIDAZOLE] | Not Active | Not Active |
| COc1ccc(CN2CCNCC2)c(OC)c1OC [TRIMETAZIDINE] | Not Active | Not Active |

Target: Tyrosine-protein kinase Fyn (Homo sapiens, UniProt P06241);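 further: enzymatic inhibition of Fyn kinase activity measured with Poly(Glu:Tyr) as the phosphorylation substrate; in other assays of this panel Not Active means under 50% inhibition at 10 µM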
Test: biochemical
Format: cell-based, Insect cells
Details: insect cells

Tyrosine-protein kinase Fyn, sequence (P06241 whole entry): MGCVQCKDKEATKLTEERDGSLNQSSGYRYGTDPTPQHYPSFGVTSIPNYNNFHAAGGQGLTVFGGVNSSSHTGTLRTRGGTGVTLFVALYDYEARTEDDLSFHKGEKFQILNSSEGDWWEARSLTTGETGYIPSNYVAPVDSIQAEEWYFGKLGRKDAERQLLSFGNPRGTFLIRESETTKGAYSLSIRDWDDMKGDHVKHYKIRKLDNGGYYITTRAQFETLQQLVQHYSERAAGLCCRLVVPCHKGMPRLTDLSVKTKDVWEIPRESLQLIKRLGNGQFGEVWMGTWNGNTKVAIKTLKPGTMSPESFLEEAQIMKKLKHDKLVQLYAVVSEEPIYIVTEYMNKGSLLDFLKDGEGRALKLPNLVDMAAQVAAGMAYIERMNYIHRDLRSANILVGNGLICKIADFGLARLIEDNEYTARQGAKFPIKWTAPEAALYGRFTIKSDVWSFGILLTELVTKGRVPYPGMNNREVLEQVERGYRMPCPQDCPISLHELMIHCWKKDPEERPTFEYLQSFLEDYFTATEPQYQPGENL

| Structure (SMILES) | IC50 |
| --- | --- |
| O=c1[nH]c2ccccc2n1CCCN1CCC(n2c(=O)[nH]c3cc(Cl)ccc32)CC1 [DOMPERIDONE] | Not Active |
| C[C@@H](O)[C@H]1C(=O)N2C(C(=O)O)=C(S[C@@H]3CN[C@H](C(=O)N(C)C)C3)[C@H](C)[C@H]12 [MEROPENEM] | Not Active |
| CC[C@@H](CO)NC(=O)[C@@H]1C=C2c3cccc4c3c(cn4C)C[C@H]2N(C)C1 [METHYSERGIDE] | Not Active |
| CCN(CC)CC#CCOC(=O)C(O)(c1ccccc1)C1CCCCC1 (centres undefined) [OXYBUTYNIN] | Not Active |
| O=P(O)(O)C(O)(Cc1cccnc1)P(=O)(O)O [RISEDRONIC ACID] | Not Active |
| CN(CCOc1ccc(CC2SC(=O)NC2=O)cc1)c1ccccn1 (centres undefined) [ROSIGLITAZONE] | Not Active |
| C=C(C)[C@H]1Cc2c(ccc3c2O[C@@H]2COc4cc(OC)c(OC)cc4[C@@H]2C3=O)O1 [ROTENONE] | Not Active |
| C#CCN(C)[C@H](C)Cc1ccccc1 [SELEGILINE] | Not Active |
| CC(C)(C)NC[C@H](O)COc1nsnc1N1CCOCC1 [TIMOLOL] | Not Active |
| CCS(=O)(=O)CCn1c([N+](=O)[O-])cnc1C [TINIDAZOLE] | Not Active |
| O=c1n(CCCN2CCN(c3cccc(Cl)c3)CC2)nc2ccccn12 [TRAZODONE] | Not Active |
| COc1ccc(CN2CCNCC2)c(OC)c1OC [TRIMETAZIDINE] | Not Active |

Target: 5-hydroxytryptamine receptor 1B (Rattus norvegicus, UniProt P28564); further: in other assays of this panel Not Active means under 50% inhibition at 10 µM
Test: not given
Format: cell membranes, Wistar, Cerebral cortex, Membrane
Details: not given

5-hydroxytryptamine receptor 1B, sequence (P28564 whole entry): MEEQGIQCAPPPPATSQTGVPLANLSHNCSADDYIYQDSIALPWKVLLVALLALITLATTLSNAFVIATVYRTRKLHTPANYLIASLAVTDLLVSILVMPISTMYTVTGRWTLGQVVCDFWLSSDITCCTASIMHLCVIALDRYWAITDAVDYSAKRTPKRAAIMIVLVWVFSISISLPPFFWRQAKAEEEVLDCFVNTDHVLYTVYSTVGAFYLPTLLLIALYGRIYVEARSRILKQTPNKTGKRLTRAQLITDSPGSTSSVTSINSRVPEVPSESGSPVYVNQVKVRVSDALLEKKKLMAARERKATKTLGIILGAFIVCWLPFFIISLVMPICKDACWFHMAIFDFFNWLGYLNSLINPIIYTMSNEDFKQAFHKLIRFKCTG

| Structure (SMILES) | IC50 |
| --- | --- |
| O=c1[nH]c2ccccc2n1CCCN1CCC(n2c(=O)[nH]c3cc(Cl)ccc32)CC1 [DOMPERIDONE] | Not Active |
| C[C@@H](O)[C@H]1C(=O)N2C(C(=O)O)=C(S[C@@H]3CN[C@H](C(=O)N(C)C)C3)[C@H](C)[C@H]12 [MEROPENEM] | Not Active |
| CCN(CC)CC#CCOC(=O)C(O)(c1ccccc1)C1CCCCC1 (centres undefined) [OXYBUTYNIN] | Not Active |
| O=P(O)(O)C(O)(Cc1cccnc1)P(=O)(O)O [RISEDRONIC ACID] | Not Active |
| CN(CCOc1ccc(CC2SC(=O)NC2=O)cc1)c1ccccn1 (centres undefined) [ROSIGLITAZONE] | Not Active |
| C=C(C)[C@H]1Cc2c(ccc3c2O[C@@H]2COc4cc(OC)c(OC)cc4[C@@H]2C3=O)O1 [ROTENONE] | Not Active |
| C#CCN(C)[C@H](C)Cc1ccccc1 [SELEGILINE] | Not Active |
| CC(C)(C)NC[C@H](O)COc1nsnc1N1CCOCC1 [TIMOLOL] | Not Active |
| CCS(=O)(=O)CCn1c([N+](=O)[O-])cnc1C [TINIDAZOLE] | Not Active |
| COc1ccc(CN2CCNCC2)c(OC)c1OC [TRIMETAZIDINE] | Not Active |

Same assay, conditions: read-out: IC50

| Structure (SMILES) | IC50 [nM] |
| --- | --- |
| CC[C@@H](CO)NC(=O)[C@@H]1C=C2c3cccc4c3c(cn4C)C[C@H]2N(C)C1 [METHYSERGIDE] | 177 |
| O=c1n(CCCN2CCN(c3cccc(Cl)c3)CC2)nc2ccccn12 [TRAZODONE] | 1360 |

Same assay, conditions: read-out: Ki

| Structure (SMILES) | Ki [nM] |
| --- | --- |
| CC[C@@H](CO)NC(=O)[C@@H]1C=C2c3cccc4c3c(cn4C)C[C@H]2N(C)C1 [METHYSERGIDE] | 108 |
| O=c1n(CCCN2CCN(c3cccc(Cl)c3)CC2)nc2ccccn12 [TRAZODONE] | 830 |
